Legend:
hMincle-Ig = target: T1, hMincle-Ig (Homo sapiens, UniProt Q9ULY5); assay: In vitro Mincle binding assay (ELISA) with hMincle-Ig fusion protein; details: plate-coated ligand 0.1 nmol/well
T1 construct: using soluble Mincle-Ig fusion-proteins; made in house
T1 sequence (Q9ULY5 41-219 limits assumed): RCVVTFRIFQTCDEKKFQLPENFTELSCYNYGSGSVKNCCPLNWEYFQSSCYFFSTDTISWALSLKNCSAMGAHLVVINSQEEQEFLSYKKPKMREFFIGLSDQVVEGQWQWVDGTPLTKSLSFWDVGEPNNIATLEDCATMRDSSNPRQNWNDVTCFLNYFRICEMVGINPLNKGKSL
Description: (§1) Preparation of ligand-coated plates: Brartemicin analogues 9a-9i, TDM (Carbosynth, Sigma Aldrich), and TDB^14 were dissolved in CHCl3:MeOH (2:1, 1 mM), diluted in isopropanol ([…]) and added to 96-well plates (20 μL/well). The solvents were evaporated and the coated plates were used immediately.
(§2) In vitro Mincle binding assay: The preparation of mMincle- and hMincle-Ig fusion proteins have been previously described. Plate-coated glycolipids 9a-i, TDB, and TDM were incubated with hMincle-Ig, mMincle-Ig, or hIgG1-Fc (Ig) [3 μg/mL in binding buffer (20 mM Tris-HCl, 150 mM NaCl, 1 mM CaCl2), 2 mM MgCl2, pH 7.0)]. Detection of bound protein was achieved via incubation with anti-hIgG-HRP followed by the addition of a colorimetric substrate and measurement of OD at 450 nm. Background was accounted for by subtracting the hIgG1-Fc OD450 values from fusion protein OD450 values
(§3) The synthesised brartemicin analogues prepared in Example 1 were first tested for their ability to bind to both human and murine Mincle in an enzyme-linked immunosorbent assay (ELISA) using soluble Mincle-Ig fusion-proteins (FIG. 1a).

mMincle-Ig = target: T2, mMincle-Ig (Mus musculus, UniProt Q9R0Q8); assay: In vitro Mincle binding assay (ELISA) with mMincle-Ig fusion protein; set-up: species or system murine; details: plate-coated ligand 0.1 nmol/well
T2 construct: using soluble Mincle-Ig fusion-proteins; made in house
T2 sequence (Q9R0Q8 46-214 limits assumed): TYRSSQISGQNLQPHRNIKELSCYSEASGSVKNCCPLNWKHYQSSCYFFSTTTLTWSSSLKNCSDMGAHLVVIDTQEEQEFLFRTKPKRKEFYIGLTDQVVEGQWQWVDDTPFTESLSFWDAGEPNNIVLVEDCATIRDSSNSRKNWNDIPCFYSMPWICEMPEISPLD
Description: as §1, §2, §3

mMincle+FcRγ = target: T3, mMincle+FcRγ (Mus musculus, UniProt Q9R0Q8); assay: 2B4-NFAT-GFP reporter cells expressing mMincle+FcRγ; assay type: cell-based, murine; details: ligand-coated plates 0.01, 0.1 or 1 nmol/well, 18 hours
T3 construct: expressed in transfected cells; host or cells: 2B4-NFAT-GFP reporter cells
T3 sequence (Q9R0Q8 1-214): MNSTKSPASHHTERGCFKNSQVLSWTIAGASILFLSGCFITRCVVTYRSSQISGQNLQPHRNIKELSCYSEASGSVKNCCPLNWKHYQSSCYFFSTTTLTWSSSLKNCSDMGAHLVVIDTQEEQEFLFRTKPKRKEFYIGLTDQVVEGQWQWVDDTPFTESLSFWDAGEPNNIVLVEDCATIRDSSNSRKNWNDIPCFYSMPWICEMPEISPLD
T3 sequence (P20491 19-86 partner): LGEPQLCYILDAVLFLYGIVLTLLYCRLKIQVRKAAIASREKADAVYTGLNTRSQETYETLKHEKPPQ
Description: as §1
2B4-NFAT-GFP reporter cells: 2B4-NFAT-GFP reporter cells expressing mMincle+FcRγ, hMincle+FcRγ, or FcRγ only have been previously described. […] The reporter cells were harvested, stained with propidium iodide, and analysed for NFAT-GFP expression using flow cytometry (FACS Calibur).
To determine whether the Mincle binding observed in Example 1 correlated with cellular activation, nuclear factor of activated T cells (NFAT)-green fluorescent protein (GFP) reporter cells expressing mMincle or hMincle coupled to FcRγ were stimulated using plates coated with TDM, TDB, brartemicin (9i), or analogues 9a-9h.
Activation of the reporter cells was measured through the production of GFP, which was monitored by flow cytometry (FIGS. 1b and 3c).
With the compounds 43a-h in hand, the ability of these analogues to bind and signal through Mincle was assessed (FIG. 5). Accordingly, NFAT-GFP reporter cells expressing mMincle+FcRγ, hMincle+FcRγ, or FcRγ-only were stimulated with the 2G-brartemicin analogues 43a-h, TDB, iPrOH, or the p-OC18H37 substituted analogue, 9f. Reporter cell activation was measured by the production of NFAT-GFP, which was analysed by flow cytometry.

wild-type GM-CSF BMDMs = assay: Cytokine/chemokine production by wild-type GM-CSF BMDMs on ligand-coated plates; assay type: cell-based, C57BL/6 mice; details: wild-type BMDMs, coated plates 0.1 or 1 nmol/well, 24 hours, ELISA
Description: as §1
Murine bone-marrow derived macrophages: For the preparation of murine bone-marrow derived macrophages, bone marrow cells were collected from the tibias and femurs of C57BL/6 mice and cultured (250,000 cells/mL) in complete RPMI media [RPMI-1640 (Gibco) with 10% heat inactivated fetal bovine serum (Gibco), 100 unit/mL penicillin-streptomycin (Gibco) and 2 mM Glutamax (Gibco)] supplemented with 50 ng/mL GM-CSF (clone X63/GM-CSF murine cells). Cells were incubated at 37° C. (5% CO2) for 8 days (cells fed by replacing half the media on days 3 and 6). On day 8, all media was removed and the cells were washed with Dulbecco's Phosphate-Buffered Saline (DPBS, Gibco) to remove any loosely-adherent cells. The BMDMs were harvested with StemPro Acutase (1 mL/well, 15 minutes at room temperature, Gibco) and seeded onto a pre-coated 96-well plate. The supernatant was collected and analysed for cytokine/chemokine production after 24 hours.
Cytokine analysis: IL-1β, IFN-γ, IL-6, TNF-α (BD Biosciences), IL-17, and MIP-2 (R&D) levels were determined via sandwich ELISA according to the manufacturer's instructions.
First, the ability of the compounds to activate GM-CSF BMDMs was determined by monitoring the secretion of the inflammatory cytokines TNF, IL-6, and IL-1β and the chemokine, MIP-2, in a ligand-coated plate assay (FIG. 2).
To gain insight into the capacity of the 2G-series of brartemicin analogues to induce an inflammatory immune response, the analogues were then screened for their ability to activate WT and Mincle^−/− BMDMs, with cellular activation being determined by the measurement of IL-1B using ELISA (FIG. 6).

binding to hMincle-Ig (ELISA, OD at 450 nm) (hMincle-Ig): good binding
binding to mMincle-Ig (ELISA, OD at 450 nm) (mMincle-Ig): good binding
activation of mMincle NFAT-GFP reporter cells (GFP by flow cytometry) (mMincle+FcRγ): strongly activated
Substance: 6,6′-Di-O-(2-hydroxy-4-octabenzyloxybenzoyl)-α,α′-D-trehalose [9a]
IL-1β production (wild-type GM-CSF BMDMs): significant production
IL-6 production (wild-type GM-CSF BMDMs): significant production
MIP-2 production (wild-type GM-CSF BMDMs): significant production
TNF production (wild-type GM-CSF BMDMs): significant production

Reference: patent publication US11510980B2, “Brartemicin analogues” (VICTORIA LINK LTD, priority 2017, dated 2022)
